Laboratory results taken from PubChem BioAssay (NCI).
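Protocol summary: plate cells (96-well), add compound at 5 concentrations, incubate 48 h, interpolate endpoints linearly. GI50 is the concentration that inhibits growth by half. TGI marks complete inhibition of growth.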

Assays:
Assay in all cases: NCI-60 cell line screen, 48 h
[1] = tested on: SN12C renal
[2] = tested on: K-562 leukemia
[3] = tested on: MCF7 breast
[4] = tested on: NCI-H23 lung
[5] = tested on: HOP-62 NSCLC
[6] = tested on: HCT-15 colon
[7] = tested on: SF-268 CNS
[8] = tested on: U251 CNS
[9] = tested on: DU-145 prostate
[10] = tested on: MDA-MB-435
[11] = tested on: OVCAR-4 ovarian
[12] = tested on: SK-OV-3 ovarian
[13] = tested on: SF-295 CNS
[14] = tested on: HT29 colon
[15] = tested on: IGROV1 ovarian
[16] = tested on: ACHN renal
[17] = tested on: CAKI-1 renal
[18] = tested on: OVCAR-5 ovarian
[19] = tested on: HOP-92 NSCLC
[20] = tested on: LOX IMVI melanoma
[21] = tested on: NCI/ADR-RES ovarian
[22] = tested on: M14 melanoma
[23] = tested on: T-47D breast
[24] = tested on: MALME-3M melanoma
[25] = tested on: NCI-H226 lung
[26] = tested on: MOLT-4 leukemia
[27] = tested on: SR leukemia
[28] = tested on: RPMI-8226 leukemia
[29] = tested on: HCT-116 colon
[30] = tested on: SK-MEL-5 melanoma
[31] = tested on: SW-620 colon
[32] = tested on: BT-549 breast
[33] = tested on: SNB-75 CNS
[34] = tested on: A498 renal
[35] = tested on: HL-60(TB) leukemia
[36] = tested on: 786-0 renal
[37] = tested on: COLO 205 colon
[38] = tested on: SNB-19 CNS
[39] = tested on: HS 578T breast
[40] = tested on: PC-3 prostate
[41] = tested on: OVCAR-8 ovarian
[42] = tested on: SK-MEL-2 melanoma
[43] = tested on: SF-539 CNS
[44] = tested on: SK-MEL-28 melanoma
[45] = tested on: HCC-2998 colon
[46] = tested on: TK-10 renal
[47] = tested on: CCRF-CEM leukemia
[48] = tested on: NCI-H522 lung
[49] = tested on: UACC-257 melanoma
[50] = tested on: NCI-H460 lung
[51] = tested on: RXF 393 renal
[52] = tested on: MDA-MB-231 breast
[53] = tested on: UO-31 renal
[54] = tested on: UACC-62 melanoma
[55] = tested on: A549 NSCLC
[56] = tested on: KM12 colon
[57] = tested on: OVCAR-3 ovarian

Compound: COc1cccc(C(=O)c2sc(Nc3ccc(N4CCN(C(C)C)CC4)cc3)nc2N)c1
- GI50 [1]: 0.895 µM
- TGI [1]: 13.8 µM
- GI50 [2]: 3.22 µM
- TGI [2]: > 22.1 µM
- GI50 [3]: 0.473 µM
- TGI [3]: 3.38 µM
- GI50 [4]: 1.42 µM
- TGI [4]: 8.01 µM
- GI50 [5]: 1.57 µM
- TGI [5]: 11.9 µM
- GI50 [6]: 0.962 µM
- TGI [6]: > 25 µM
- GI50 [7]: 1.52 µM
- TGI [7]: 5.06 µM
- GI50 [8]: 0.949 µM
- TGI [8]: 7.1 µM
- GI50 [9]: 1.14 µM
- TGI [9]: > 25 µM
- GI50 [10]: 1.63 µM
- TGI [10]: 5.68 µM
- GI50 [11]: 3.48 µM
- TGI [11]: 16.2 µM
- GI50 [12]: 5.91 µM
- TGI [12]: > 24.1 µM
- GI50 [13]: 2.55 µM
- TGI [13]: 8.83 µM
- GI50 [14]: 0.997 µM
- TGI [14]: 12.8 µM
- GI50 [15]: 2.14 µM
- TGI [15]: > 18.6 µM
- GI50 [16]: 0.596 µM
- TGI [16]: > 25 µM
- GI50 [17]: 1.01 µM
- TGI [17]: > 8.2 µM
- GI50 [18]: 0.769 µM
- TGI [18]: > 22.4 µM
- GI50 [19]: 0.545 µM
- TGI [19]: 4.38 µM
- GI50 [20]: 1.22 µM
- TGI [20]: 4.88 µM
- GI50 [21]: 2.46 µM
- TGI [21]: > 22.9 µM
- GI50 [22]: 2.96 µM
- TGI [22]: 7.12 µM
- GI50 [23]: 2.11 µM
- TGI [23]: 13.5 µM
- GI50 [24]: 3.02 µM
- TGI [24]: 7.13 µM
- GI50 [25]: 1.38 µM
- TGI [25]: > 22.8 µM
- GI50 [26]: 0.966 µM
- TGI [26]: 13.1 µM
- GI50 [27]: 0.478 µM
- TGI [27]: > 7.24 µM
- GI50 [28]: 1.34 µM
- TGI [28]: 6.52 µM
- GI50 [29]: 0.845 µM
- TGI [29]: > 25 µM
- GI50 [30]: 1.33 µM
- TGI [30]: 5.21 µM
- GI50 [31]: 0.853 µM
- TGI [31]: > 13.1 µM
- GI50 [32]: 3.62 µM
- TGI [32]: 7.55 µM
- GI50 [33]: 2.02 µM
- TGI [33]: 5.34 µM
- GI50 [34]: 2.33 µM
- TGI [34]: 8.24 µM
- GI50 [35]: 0.661 µM
- TGI [35]: 2.73 µM
- GI50 [36]: 1.61 µM
- TGI [36]: 5.76 µM
- GI50 [37]: 0.694 µM
- TGI [37]: 3.53 µM
- GI50 [38]: 1.04 µM
- TGI [38]: > 25 µM
- GI50 [39]: 2.42 µM
- TGI [39]: 11.4 µM
- GI50 [40]: 0.892 µM
- TGI [40]: 10.9 µM
- GI50 [41]: 1.49 µM
- TGI [41]: 24.8 µM
- GI50 [42]: 1.8 µM
- TGI [42]: 5.49 µM
- GI50 [43]: 1.55 µM
- TGI [43]: 4.65 µM
- GI50 [44]: 1.85 µM
- TGI [44]: 7.05 µM
- GI50 [45]: 3.39 µM
- TGI [45]: 10.7 µM
- GI50 [46]: 1.34 µM
- TGI [46]: 9.19 µM
- GI50 [47]: 0.788 µM
- TGI [47]: 4.41 µM
- GI50 [48]: 3.94 µM
- TGI [48]: 7.86 µM
- GI50 [49]: 3.03 µM
- TGI [49]: 6.34 µM
- GI50 [50]: 0.92 µM
- TGI [50]: 7.87 µM
- GI50 [51]: 0.437 µM
- TGI [51]: 1.12 µM
- GI50 [52]: 1.84 µM
- TGI [52]: > 19.8 µM
- GI50 [53]: 1.4 µM
- TGI [53]: 7.16 µM
- GI50 [54]: 2.84 µM
- TGI [54]: 6.21 µM
- GI50 [55]: 1.22 µM
- TGI [55]: 12.5 µM
- GI50 [56]: 0.889 µM
- TGI [56]: 7.13 µM
- GI50 [57]: 1.52 µM
- TGI [57]: 9.18 µM

Compound: CCN(Cc1cccnc1)c1ccc(CO)c(Cl)c1
- GI50 [1]: > 87.5 µM
- TGI [1]: > 100 µM
- GI50 [2]: 5.58 µM
- TGI [2]: > 100 µM
- GI50 [3]: 0.459 µM
- TGI [3]: > 100 µM
- GI50 [4]: 45 µM
- TGI [4]: > 100 µM
- GI50 [5]: 7.3 µM
- TGI [5]: > 100 µM
- GI50 [6]: > 88.8 µM
- TGI [6]: > 100 µM
- GI50 [7]: > 100 µM
- TGI [7]: > 100 µM
- GI50 [8]: 3.75 µM
- TGI [8]: > 100 µM
- GI50 [9]: > 81.3 µM
- TGI [9]: > 100 µM
- GI50 [10]: > 100 µM
- TGI [10]: > 100 µM
- GI50 [11]: 0.433 µM
- TGI [11]: 4.63 µM
- GI50 [12]: 23.5 µM
- TGI [12]: > 100 µM
- GI50 [13]: 1.06 µM
- TGI [13]: > 100 µM
- GI50 [14]: 4.67 µM
- TGI [14]: > 100 µM
- GI50 [15]: 0.241 µM
- TGI [15]: 1.12 µM
- GI50 [16]: 97.7 µM
- TGI [16]: > 100 µM
- GI50 [17]: 22.5 µM
- TGI [17]: > 100 µM
- GI50 [18]: 0.244 µM
- TGI [18]: 0.915 µM
- GI50 [19]: 3.21 µM
- TGI [19]: 66.4 µM
- GI50 [20]: > 100 µM
- TGI [20]: > 100 µM
- GI50 [21]: 36.5 µM
- TGI [21]: > 100 µM
- GI50 [22]: > 100 µM
- TGI [22]: > 100 µM
- GI50 [23]: 0.269 µM
- TGI [23]: 1.54 µM
- GI50 [24]: > 100 µM
- TGI [24]: > 100 µM
- GI50 [25]: 0.0885 µM
- TGI [25]: 0.269 µM
- GI50 [26]: > 94.9 µM
- TGI [26]: > 100 µM
- GI50 [27]: > 100 µM
- TGI [27]: > 100 µM
- GI50 [28]: 11.1 µM
- TGI [28]: > 100 µM
- GI50 [29]: 0.298 µM
- TGI [29]: > 100 µM
- GI50 [30]: 15.1 µM
- TGI [30]: > 60.2 µM
- GI50 [31]: 3.66 µM
- TGI [31]: > 100 µM
- GI50 [32]: > 94.3 µM
- TGI [32]: > 100 µM
- GI50 [33]: 65.9 µM
- TGI [33]: > 100 µM
- GI50 [34]: 0.0797 µM
- TGI [34]: 0.236 µM
- GI50 [35]: 22.6 µM
- TGI [35]: > 100 µM
- GI50 [36]: > 45.5 µM
- TGI [36]: > 100 µM
- GI50 [37]: 1.42 µM
- TGI [37]: 5.33 µM
- GI50 [38]: > 100 µM
- TGI [38]: > 100 µM
- GI50 [39]: > 100 µM
- TGI [39]: > 100 µM
- GI50 [40]: 58.4 µM
- TGI [40]: > 100 µM
- GI50 [41]: 34.9 µM
- TGI [41]: > 100 µM
- GI50 [42]: > 37 µM
- TGI [42]: > 100 µM
- GI50 [43]: > 100 µM
- TGI [43]: > 100 µM
- GI50 [44]: > 100 µM
- TGI [44]: > 100 µM
- GI50 [45]: 10.4 µM
- TGI [45]: > 100 µM
- GI50 [46]: 0.12 µM
- TGI [46]: 0.333 µM
- GI50 [47]: > 96 µM
- TGI [47]: > 100 µM
- GI50 [48]: > 100 µM
- TGI [48]: > 100 µM
- GI50 [49]: 0.195 µM
- TGI [49]: 0.621 µM
- GI50 [50]: 0.555 µM
- TGI [50]: 8.66 µM
- TGI [51]: > 100 µM
- GI50 [52]: > 95.8 µM
- TGI [52]: > 100 µM
- GI50 [53]: 20 µM
- TGI [53]: > 100 µM
- GI50 [54]: 0.289 µM
- TGI [54]: 2.05 µM
- GI50 [55]: 5.73 µM
- TGI [55]: > 75.8 µM
- GI50 [56]: > 100 µM
- TGI [56]: > 100 µM
- GI50 [57]: 1.13 µM
- TGI [57]: 5.36 µM
